Measurements reported in US11980596B2 (priority 2017, dated 2024).

What was measured:
rat liver cells = assay: In vivo Comet assay; settings: intravenously-administered
adult female rats [1] = assay: Second single dose neurotoxicity study (neuronal necrosis), intranasal esketamine (label); settings: 200-gram rat
adult female rats [2] = assay: Single-dose neuronal toxicity study (neuronal vacuolation), intranasal esketamine (label); settings: rat, in vivo
[3] = test system: patients with treatment-resistant depression (TRD); assay: CADSS (Example 7); settings: human, in vivo, other: intranasal
Method: Adverse events were monitored throughout the study. Other safety assessments (i.e., laboratory tests, vital signs, physical examination) were performed at pre-specified time points. Vital signs, the Clinician Administered Dissociative States Scale (CADSS; Bremner, “Measurement of dissociative states with the clinician-administered dissociative states scale (CADSS)”, J. Traumatic Stress, 1998, 11(1):125-136), and the 4-item positive symptom subscale from the Brief Psychiatric Rating Scale (BPRS; Overall, “The Brief Psychiatric Rating Scale. Psychological Reports”, 1962, 10:799-812) were assessed pre-dose, at 40 minutes, and 2 hours post-dose.

[4] = test system: subjects with MDD at imminent risk for suicide; assay: Beck Scale for Suicidal Ideation (BSS) ([…]2001); format: in vivo, human
Method: The BSS is a 21-item self-reported instrument to detect and measure the severity of suicidal ideation in adults and adolescents aged 17 years and older. The BSS total score represents the severity of suicide ideation, and it is calculated by summing the ratings of the first 19 items; the total score ranges from 0 to 38, with a higher score representing greater suicide ideation. Increasing scores reflect increases in suicidal risk.

[5] = test system: subjects with MDD at imminent risk for suicide; settings: post dose
Method: The CADSS was measured prior to the start of each dose, at 40 minutes, 2 hours, and 4 hours postdose.

subjects with TRD = settings: post dose
Method: The Clinician Administered Dissociative States Scale (CADSS) was measured prior to the start of each dose, at 40 minutes, and 1.5 hours postdose.

[6] = test system: patients with treatment-resistant depression (TRD); assay: MADRS total score, response and remission (Example 7, phase 2 dose-response study); format: in vivo, human; settings: for MADRS: treatment difference relative to placebo: day 15, completers, same treatment 2 weeks; for MADRS: LS mean difference vs placebo, range over dose groups: 28, 56, 84 mg
Method: At the beginning of double-blind Period 1, eligible participants were randomized (3:1:1:1) to intranasal placebo or esketamine 28, 56, or 84 mg, twice weekly (days 1 and 4) based on the first of two computer-generated randomization schedules (Period 1 and Period 2). Randomization was balanced by using randomly permuted blocks and stratified by study center. At the end of Period 1, those randomized to placebo who had moderate-to-severe symptoms (assessed by Quick Inventory of Depressive Symptomatology-Self Report (Trivedi 2016 and Rush, “The 16-item Quick Inventory of Depressive Symptomatology (QIDS) Clinician Rating (QIDS-C) and Self-Report (QIDS-SR): A psychometric evaluation in patients with chronic major depression”, Biol. Psychiatry, 2003, 54(5):573-583) [QIDS-SR16] total score: moderate, 11-16; severe, >16) were re-randomized (1:1:1:1) to intranasal esketamine 28, 56, or 84 mg or placebo, twice weekly (days 8 and 11), while those having mild or no symptoms continued on placebo. To maintain the blind, all participants completed an identical process prior to entry into Period 2, whether or not they were re-randomized. Regardless of response in the double-blind phase, all participants were eligible to enter the optional open-label phase. Esketamine (56 mg) was administered on the first day of the open-label phase (study day 15); subsequent doses could be adjusted (range: 28 to 84 mg) based on investigator's clinical judgment, with administration twice weekly for first 2 weeks, weekly for next 3 weeks, then every 2 weeks thereafter.
Efficacy was assessed with the Montgomery-Asberg Depression Rating Scale (MADRS; Montgomery, “A new depression scale designed to be sensitive to change”, Br. J. Psychiatry, 1979, 134:382-389; Williams, “Development and reliability of a structured interview guide for the Montgomery Asberg Depression Rating Scale (SIGMA)”, Br. J. Psychiatry, 2008, 192(1):52-58) on days 1 (pre-dose and 2 hour post-dose), 2, 8 (pre-dose), 9, and 15, using the structured interview guide (SIGMA). See, Williams 2008.
The primary efficacy endpoint—change from baseline (pre-dose, day 1 in each period) to endpoint (day 8 in each period) in MADRS total score—was analyzed using the analysis of covariance (ANCOVA) model. For Period 1, the model included treatment and country as factors, and baseline MADRS total score as covariate. For Period 2, the model included treatment and country as factors, Period 2 baseline QIDS-SR16 score (moderate or severe), and Period 2 baseline MADRS total score as a continuous covariate.
Given the consistency between Periods 1 and 2 results (Chi 2016), esketamine dose groups were compared to placebo using a combined test on the weighted test statistics for each period in the double-blind treatment phase. A dose-response analysis on primary efficacy endpoint was performed using data combined from both periods. The Multiple Comparison Procedure—Modelling (MCP-Mod) methodology was performed (Williams 2008; Bretz, “Combining multiple comparisons and modeling techniques in dose-response studies”, Biometrics, 2005, 61:738-748).

healthy subjects = assay: Cardiac electrophysiology (QTc) study; format: in vivo, human
Method: The effect of SPRAVATO (84 mg nasal spray and 0.8 mg/kg esketamine intravenously infused over 40 minutes) on the QTc interval was evaluated in a randomized, double-blind, placebo-, and positive-controlled (moxifloxacin 400 mg), 4-period, crossover study in 60 healthy subjects.

[7] = esketamine 84 mg minus placebo, ANCOVA LOCF
[8] = esketamine 84 mg, LOCF, ITT, N = 34
[9] = esketamine 84 mg, LOCF, ITT, N = 34, negative change = improvement
[10] = esketamine 84 mg, predose Day 1, ITT, N = 34
[11] = OL endpoint - day 74, Placebo/Esketamine/OL Esketamine
[12] = Period 1, study period endpoint, esketamine 28 mg
[13] = Period 2, 2 hours, esketamine 84 mg
[14] = Period 2, 24 hours, esketamine 84 mg
[15] = Period 2, study period endpoint, esketamine 84 mg
[16] = Week 8 (Follow-up), Placebo/Esketamine/OL Esketamine

## CN[C@]1(c2ccccc2Cl)CCCCC1=O [esketamine, (S)-2-(2-chlorophenyl)-2-(methylamino)cyclohexanone]
Rat liver cells
  Genotoxicity: devoid of genotoxic properties
Adult female rats [1]
  Highest dose equivalent with no findings of neuronal necrosis: 270 mg/kg
Adult female rats [2]
  Safety margin to clinical exposure at the MRHD of 84 mg/day, AUC: 1.8 times
  Safety margin to clinical exposure at the MRHD of 84 mg/day, Cmax: 4.5 times
[3]
  Perceptual changes/dissociative symptoms (CADSS): time of peak: 30 to 40 min
[4]; 84 mg, Day 1: 4-hours postdose, Day 2 (DB), End Point (DB)
  BSS total score: change vs placebo: no statistically significant differences
[4]; [7]
  BSS total score, change to Day 1 (DB): 4H, Diff. of LS Means (SE): −2.3 (2.29)
  BSS total score, change to Day 2 (DB), Diff. of LS Means (SE): −1.9 (2.30)
  BSS total score, change to End Point (DB), Diff. of LS Means (SE): −1.7 (2.15)
[4]; [8]
  BSS total score, Day 2 (DB), Median (Range): 13.0 (0; 34)
  BSS total score, End Point (DB), Mean (SD): 4.7 (9.03)
  BSS total score, End Point (DB), Median (Range): 0.0 (0; 34)
[4]; [9]
  BSS total score, Change from Baseline to Day 1 (DB): 4H, Median (Range): −8.0 (−33; 8)
  BSS total score, Change from Baseline to End Point (DB), Median (Range): −21.0 (−33; 8)
[4]; [10]
  BSS total score, Baseline (DB), Mean (SD): 24.0 (5.45)
  BSS total score, Baseline (DB), Median (Range): 25.0 (8; 33)
[5]
  Dissociative and perceptual change symptoms (CADSS) resolved by: ≤ 2 h
Subjects with TRD
  Dissociative/perceptual change symptoms (CADSS) resolved by: ≤ 1.5 h
[6]; 28 mg
  MADRS: treatment difference relative to placebo: −6.0
[6]; 56 mg
  MADRS: treatment difference relative to placebo: −8.3
[6]; 84 mg, Period 2 endpoint
  Proportion of responders (MADRS): 50.0%
[6]; 84 mg, after 2 weeks of treatment
  Remitted (MADRS): 40.0%
[6]; [11]
  MADRS response (≥50% improvement), %: 50.0%
  Remission (MADRS ≤10): No, %: 60.0%
  Remission (MADRS ≤10): Yes, %: 40.0%
[6]; OL endpoint - day 74, Placebo/Placebo/OL Esketamine
  MADRS response (≥50% improvement), %: 100%
[6]; Period 1, 2 hours, esketamine 84 mg
  MADRS Remitters, %: (25.0) %
[6]; Period 1, 24 hours, esketamine 84 mg
  MADRS Remitters, %: (25.0) %
[6]; [12]
  MADRS Remitters, %: (9.1) %
  MADRS Responders, %: (9.1) %
[6]; Period 1, study period endpoint, esketamine 56 mg
  MADRS Remitters, %: (9.1) %
[6]; Period 1, study period endpoint, esketamine 84 mg
  MADRS Remitters, %: (25.0) %
[6]; Period 1
  MADRS: LS mean difference vs placebo, range over dose groups: −5.0 to −10.5
[6]; [13]
  MADRS Remitters, %: (40.0) %
  MADRS Responders, %: (40.0) %
[6]; [14]
  MADRS Remitters, %: (20.0) %
  MADRS Responders, %: (40.0) %
[6]; [15]
  MADRS Remitters, %: (20.0) %
  MADRS Responders, %: (20.0) %
[6]; Period 2
  MADRS: LS mean difference vs placebo, range over dose groups: −3.1 to −6.9
[6]; [16]
  MADRS response (≥50% improvement), %: 25.0%
  Remission (MADRS ≤10): No, %: 75.0%
  Remission (MADRS ≤10): Yes, %: 25.0%
Healthy subjects; 84 mg nasal spray and 0.8 mg/kg intravenously over 40 minutes
  Increase in heart rate: > 10 bpm
Healthy subjects; therapeutic dose
  QTc prolongation: lack of clinically relevant QTc prolongation
